“And” between values parts separate entries of the source, which are not always exact repeats. Identical values can stand only once. “Also recorded” adds a separate entry of the source. Like-named read-outs stand apart in the source and are kept apart here.
How the values were obtained:
[1] = test system: E. coli NDM-1
Procedure: (§1) In parallel, a control set was incubated without compounds for 50 min, followed by incubation with 75 μM meropenem trihydrate for 10 min. Cells were then pelleted, washed, resuspended in water, lysed, and clarified before LC-MS analysis.
(§2) 1.12 LC-MS accumulation assay
(§3) 1.12.1 Bacterial Strains and Growth Conditions:
(§4) Accumulation assay was performed two E. coli K-12 MG1655 strains transfected with pSU18 vector containing NDM-1 expression or an empty vector control. Cell growth was performed in Luria-Bertani (LB) broth (NaCl 10g/L, K2HPO4 6.3 g/L, KH2PO4 1.8 g/L, sodium citrate […]
(§5) 1.12.2 Preparation of Accumulation Assay Samples for LC-MS Analysis:
(§6) Assay was adapted from the work of Geddes et al. and Widya et al.9–11 E. coli MG1655 pSU18 NDM-1 and pSU18 Empty were grown from single colonies at 37 °C with aeration, while shaking at 180 rpm for 18 hours. The overnight suspensions were subcultured (1:100) in fresh LB and incubated to yield an OD600 of 0.55-0.60. The were harvested and pelleted at 3500 × g for 15 minutes at 4 °C. The pellets were washed with Meuller -Hinton II (MHII) broth and pelleted again under the same conditions. The pellets were resuspended in a n adjusted volume of fresh MHII to achieve an OD 600 ≈ 10.0. Shielded from ambient light, cells were incubated with 320 μM of metal complex for 1 hour while shaking at 180 rpm. Separately, another set of cells was incubated under identical conditions without any added metal complex. Cells […]
(§7) incubated with metal complex were maintained incubating under the same conditions for an additional 10 minutes, while the second set of cells was incubated with 75 μM of meropenem trihydrate for 10 minutes. After treatment, 10 μL of each cell suspension was taken and dilution 1:10 PBSA for OD600 viability analysis. A 150 μL aliquot of each cell suspension was layered onto 150 μL of cold silicone oil mixture (1:9, v/v AR20:High temperature silicone oil) and centrifuged at 3500 × g for 1 hour at 4 °C. The aqu eous and oil supernatant were carefully aspirated to isolate the cell pellets, which were resuspended in 50 μL of water and transferred to a fresh microplate. For lysis, a 1:1 (v/v) mixture of acetonitrile and methanol was added to each sample, and the sam ples were freeze thawed at -80 °C for approximately 18 hours.
(§8) Thawed samples were clarified by two rounds of centrifugation at 3500 × g for 1 hour at 4 °C, […]
(§9) External calibration curves were prepared by mixing compound at increasing concentration with extracted cell lysate (prepared in parallel to analyte containing samples) in concentrations […]
(§10) nM were also prepared to assess quantitative accuracy. Samples were submitted to LCMS analysis as biological triplicate using a single calibration curve. […]
(§11) was spiked into each calibration and analyte sampl e as an internal standard.

[2] = test system: E. coli empty
Procedure: as §1, §2, §3, §4, §5, §6, §7, §8, §9, §10, §11

[3] = test system: seven mammalian cell lines; details: panel of seven mammalian cell lines including HepG2
[4] = test system: HeLa
[5] = test system: hTERT RPE-1
[6] = test system: HepG2
[7] = test system: HCT116
[8] = biological target: HDAC1 (Homo sapiens, UniProt Q13547); experiment: HDAC1 deacetylation assay (H3K9Ac, mass spectrometry); details: 100 µM compound, 3 hours, 37°C
Procedure: 1.7.1 HDAC1 Assay conditions:
The results of the assay were analysed using HRMS.
HDAC1 was included (-HDAC1).

[9] = biological target: T1, NDM-1 (Klebsiella pneumoniae, UniProt C7C422); experiment: biochemical
Procedure: (§12) 1.4.1 Differential Scanning Fluorimetry (DSF)
(§13) DSF was performed using the Applied Biosystems QuantStudio 5 thermal cycler (Thermo
(§14) Fisher Scientific). Results were analysed and Tm determined with the Applied Biosystems
(§15) Protein Thermal Shift Software v1.4 and Tm values determined by the software. DSF was
(§16) conducted in sealed MicroAmp Optical 384-Well Reaction Plates (Thermo Fisher Scientific).
(§17) at a temperature ramp rate of 0.03 °C/s. For compound-protein interaction studies, a final
(§18) containing 5X SYPRO Orange (Thermo Fisher Scientific), 50 mM HEPES and 5%(v/v)
(§19) DMSO-d6. The final reaction volume was 20 µL per well. All DMSO compound stocks used
(§20) for DSF experiments were freshly prepared from solid stocks. All DSF measurements were
(§21) carried out in triplicate and the Tm reported is the mean value and the error is the standard
(§22) deviation. For all compounds tested, a no protein control run was included to see potential
(§23) changes in fluorescence resulting from a compound-dye interaction.

[10] = biological target: T1, NDM-1; details: for Effect on melting temperature of NDM-1: in words
Procedure: as §12, §13, §14, §15, §16, §17, §18, §19, §20, §21, §22, §23

[11] = test system: HaCaT
[12] = test system: HEK293T
[13] = Chromatographic LogD measurement; details: reversed-phase HPLC, Eclipse Plus C18 column, pH 7.4
Procedure: ChromLogD measurements were adapted from a previously reported procedure.3 The reversed
phase HPLC measurements were measured using an Agilent 1100 Series, equipped with an
Eclipse Plus C18 column 4.6 x 50 mm, using a gradient of 50 mM ammonium acetate/CH3CN
0 – 100% over 10 min. The mobile phase was adjusted to pH = 7.4 using concentrated sodium
The retention times (log k’) of seven commercially available compounds which cover the log
D range from -0.02 to 3.18 (theophylline, 5-phenyl-1H-tetrazole, benzimidazole, colchicine,
acetophenone, indole, propiophenone, butyrophenone, and benzophenone) were calculated
using the below equation, where tR is the retention time of the compound and t0 is the column
dead time, measured by injecting uracil (0.853 min).
The average retention times (tR) of two consecutive injections of sample were used to calculate
the log k’ values, which were then used to create the standard curve (Figure S1).

[14] = biological target: T2, NDM-1 in E. coli NDM-1 (Klebsiella pneumoniae, UniProt C7C422); details: E. coli NDM-1, 450 nm, 60 J cm^-2
Procedure: (§24) shaking at 180 rpm for 18 hours. The overnight suspensions were subcultured (1:100) in fresh LB and incubated to yield an OD600 of 0.55-0.60. The were harvested and pelleted at 3500  g for 15 minutes at 4 °C. The pellets were washed with PBS and pelleted again under the same
(§25) conditions. The bacteria were then stored as pellets at 4 C until required for the assay and to
(§26) be used within 5 hours. To prepare the bacteria fo r the assay, a pellet was resuspended in an
(§27) adjusted volume of fresh PBS to achieve an OD600 ≈ 5.0 and then kept at 4 C for 1 hr before
(§28) being used. The bacteria were then diluted to OD600 ≈ 2.0 in fresh PBS and used immediately.
(§29) inhibitor control, and one row of Bacteria Buffer B (50 µL) which served as a no-bacteria
(§30) control (providing five rows in total). Bacteria stock (OD600 ≈ 2.0, 40 µL, final concentration
(§31) of bacteria in well = OD600 ≈ 0.8) was added to each well of the first four rows, the plate was
(§32) sealed, and the samples then pre-incubated for 60 min under either ‘dark’ or ‘light’ conditions
(§33) Under ‘dark’ conditions, the plate was left sealed in a
(§34) substrate in well = 100 µM) was conducted manually and then the plate immediately resealed
(§35) substrate had been completely consumed. Method conditions are as follows: cycle time = 100

[15] = biological target: T1, NDM-1; experiment: biochemical; details: recombinant NDM-1, nitrocefin
[16] = test system: RAW264.7; details: RAW
[17] = biological target: T1, NDM-1; details: 450 nm, 20 J cm^-2
[18] = test system: E. coli NDM-1; remark: listed apart in the source
Procedure: based screening experiments were performed in biological triplicate, each replicate starting
from a new single colony inoculation. Statistical significance was determined using two-way
ANOVA followed by Sidak’s multiple comparison test, with a single pooled variance.
Concentration (MIC) assay
20% glycerol stocks of E. coli MG1655 pSU18 NDM-1 (E. coli NDM-1) and E. coli MG1655
pSU18 empty (E. coli empty) stored at -80 °C were used to streak nutrient agar plates. After
The MHBII culture growing both E. coli strains contained chloramphenicol
as an antibiotic resistance marker (2 µg/mL, equivalent to ¼ MICE. coli for chloramphenicol =
8 µg/mL). The resulting suspensions were each diluted 100 x (15 µL in 1.5 mL) in MHBII with
chloramphenicol (2 µg/mL), and the resultant suspensions were incubated to OD600 = 0.6-1.2
To generate the two-dimensional drug interaction matrix, four 96-well source plates were
prepared. In Source Plates A1-3, the three analytes were subjected to a two-fold serial dilution
across the rows (A to G), maintaining constant concentrations within each row and achieving
a vertical concentration gradient. In parallel, Source Plate B was prepared by diluting
meropenem in a two-fold series across the Columns (9 to 2), generating a horizontal
concentration gradient across the plate. Equal volumes (1 µL) from one of the source plates A
and source plate B were transferred into a 96-well assay plate to establish the checkerboard
layout with a 50X dilution into MHBII (50 μL total volume).
The prepared bacterial cells were diluted to OD600 = 0.01. Each prepared checkerboard plate
was then inoculated with 50 μL per well of bacterial culture in MHBII with ½ MIC of
chloramphenicol (100 μL total volume per well , final OD600 = 0.005). Control wells were
included to account for drug-free growth, sterility, and single-agent gradient exposures. Dark
For the light condition, the
OD600 was measured on a BMG Labtech CLARIOstar plate reader. The MIC is the first value
at which no growth is seen. All E. coli NDM-1 data were averaged from 3 biological replicates,

[19] = biological target: T2, NDM-1 in E. coli NDM-1; experiment: cell-based; details: E. coli NDM-1, nitrocefin
Procedure: as §24, §25, §26, §27, §28, §29, §30, §31, §32, §33, §34, §35

[20] = organic photosensitizers; cited from earlier work
[21] = biological target: T1, NDM-1
Procedure: In addition, intact mass spectrometry was performed on the samples prepared for SDS-PAGE.

[22] = biological target: T1, NDM-1; assay type: biochemical; details: mixture of NDM-1 and BSA, 0-1000 μM
Procedure: 1.8 Protein degradation via SDS-PAGE […]
were made at 10 mM in DMSO and then diluted to the appropriate concentration (1 mM – 10 µM) in 50 mM HEPES pH 7.5. The enzyme stocks (10 µM) were made up in 50 mM HEPES pH 7.5. The compound and enzyme stocks were mixed 1:1 and then pre -incubated for 10 min […]
‘light’ conditions the samples were transferred to a 96 well plate to provide irradiation. For a […]
(208 s, 96 mW cm-2). For a dose of 60 J cm-2 the plate was irradiated immediately (624 s, 96 […]
An aliquot of each sample was mixed with SDS-sample buffer (NuPAGE® LDS Sample buffer 4x) and heated to 95°C for 3 min. The samples were loaded on to the gel (NuPAGE® 4-12% Bis-tris gel) and run at 200V/125 mA for 30 min (1 gel per Gel box) or 60 min (2 gels per Gel box). SDS-PAGE gels were imaged using a Cytiva Amersham ImageQuant™ 800.
Densitometry of gel bands was measured and processed using Fiji (ImageJ).
1.8.3 BSA+NDM-1 selectivity experiment […]
nm, 20 J cm-2). Lane 1: Ladder; Lane 2: NDM-1 – no compound control (dark); Lane 3: BSA – no compound control (dark); Lane 4: NDM-1 + BSA - no compound control (dark); Lane 5: NDM-1 + BSA + 1 eq. compound (dark); Lane 6: NDM-1 + BSA + 10 eq. compound (dark); Lane 7: NDM-1 + BSA + 100 eq. compound (dark); Lane 8: NDM-1 + BSA - no compound control (light); Lane 9: NDM-1 + BSA + 1 eq. compound (light); Lane 10: NDM-1 + BSA + 10 eq. compound (light); Lane 11: NDM-1 + BSA + 100 eq. compound (light). […]
the dark (left) and under light irradiation (450 nm, 20 J cm-2).

[23] = test system: E. coli empty; details: dark and light samples equivalent
[24] = read-out: Change in melting temperature (ΔT) of NDM-1
[25] = compound 5 μM, light 450 nm, 60 J cm^-2
[26] = compound 10 μM, light 450 nm, 60 J cm^-2
[27] = compound 20 μM, light 450 nm, 60 J cm^-2
[28] = compound 40 μM, light 450 nm, 60 J cm^-2
[29] = compound 80 μM, light 450 nm, 60 J cm^-2
[30] = compound 160 μM, light 450 nm, 60 J cm^-2

T2 sequence (C7C422 29-270 limits assumed): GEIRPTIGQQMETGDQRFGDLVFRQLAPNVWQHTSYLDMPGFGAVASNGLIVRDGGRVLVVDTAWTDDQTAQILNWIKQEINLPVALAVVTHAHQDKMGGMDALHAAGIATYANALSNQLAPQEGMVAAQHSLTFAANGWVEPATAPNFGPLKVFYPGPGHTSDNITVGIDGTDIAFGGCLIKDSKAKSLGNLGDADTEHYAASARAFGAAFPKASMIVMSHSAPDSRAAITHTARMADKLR
T1 sequence (C7C422 31-270 limits assumed): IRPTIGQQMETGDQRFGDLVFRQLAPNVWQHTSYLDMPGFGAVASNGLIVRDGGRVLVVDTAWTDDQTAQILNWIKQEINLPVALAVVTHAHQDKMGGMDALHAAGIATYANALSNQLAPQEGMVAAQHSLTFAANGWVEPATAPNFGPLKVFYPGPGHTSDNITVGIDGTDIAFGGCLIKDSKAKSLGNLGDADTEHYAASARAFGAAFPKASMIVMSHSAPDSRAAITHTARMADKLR
Sequence of HDAC1 (Q13547 whole entry, species assumed): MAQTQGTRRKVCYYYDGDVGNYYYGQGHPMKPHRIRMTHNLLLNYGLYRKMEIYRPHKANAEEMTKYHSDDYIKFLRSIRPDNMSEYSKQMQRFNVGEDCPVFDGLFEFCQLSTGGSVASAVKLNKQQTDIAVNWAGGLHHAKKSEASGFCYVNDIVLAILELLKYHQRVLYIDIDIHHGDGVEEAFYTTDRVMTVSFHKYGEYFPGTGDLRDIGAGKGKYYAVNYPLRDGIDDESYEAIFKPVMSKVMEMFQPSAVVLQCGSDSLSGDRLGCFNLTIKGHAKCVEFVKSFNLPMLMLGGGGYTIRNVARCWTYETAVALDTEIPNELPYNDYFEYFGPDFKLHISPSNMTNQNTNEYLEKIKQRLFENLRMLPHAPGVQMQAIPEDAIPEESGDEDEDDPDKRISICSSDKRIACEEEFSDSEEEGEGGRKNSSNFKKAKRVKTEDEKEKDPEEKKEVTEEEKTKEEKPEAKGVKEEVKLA

C[C@@H](O)[C@H]1C(=O)N2C(C(=O)O)=C(S[C@@H]3CN[C@H](C(=O)N(C)C)C3)[C@H](C)[C@H]12 [Meropenem, meropenem]
Accumulation ([1]; 75 μM, 10 min): not detectable
Accumulation ([2]; 75 μM, 10 min): 150 nM/OD600
Accumulation ([2]; 75 μM, 10 min, listed as meropenem trihydrate): 0 nM/OD600

Cl.Cl.Nc1cccc(-c2cc(C(=O)O)nc(C(=O)O)c2)c1 [N1, 4-(3-amino-phenyl) dipicolinic acid]
Cytotoxicity (no cytotoxicity up to) [3]: > 50 µM
LD50 ([4]; 24 h): > 50 µM
LD50 ([4]; 48 h): > 50 µM
LD50 ([5]; RPE1, 24 h): > 50 µM
LD50 ([5]; RPE1, 48 h): > 50 µM
LD50 ([6]; HepG2, 24 h): > 50 µM
LD50 ([6]; HepG2, 48 h): > 50 µM
LD50 ([7]; HCT116, 24 h): > 50 µM
LD50 ([7]; HCT116, 48 h): > 50 µM
Inhibition of HDAC1 [8]: do not inhibit
Kd [9]: 35 µM
ΔTm at 4 µM [9, 24]: -0.6 °C
ΔTm at 16 µM [9, 24]: -3.4 °C
ΔTm at 63 µM [9, 24]: -8.8 °C
Effect on melting temperature of NDM-1 [10]: destabilize the protein in a dose-dependent manner
LD50 ([11]; 24 h): > 50 µM
LD50 ([11]; 48 h): > 50 µM
LD50 ([12]; 24 h): > 50 µM
LD50 ([12]; 48 h): > 50 µM
chromatographic logD [13]: -1.32
Fold improvement in potency, light vs dark [14]: no change in potency
IC50 ([15]; IC50(dark), dark): 3.2 ± 0.08 µM
IC50 ([15]; IC50(light), light 450 nm, 20 J cm^-2): 3.1 µM
LD50 ([16]; 24 h): > 50 µM
LD50 ([16]; 48 h): > 50 µM
Fold improvement in NDM-1 inhibition, light vs dark [17]: no enhancement of potency
Accumulation ([1]; 320 μM, 1 h): 731 nM/OD600
Accumulation ([2]; 320 μM, 1 h): 609 nM/OD600
Fold change in Meropenem MIC ([18]; compound 5 μM, dark): 0 fold
Fold change in Meropenem MIC [18, 25]: 0.66 fold
Fold change in Meropenem MIC ([18]; compound 10 μM, dark): 0 fold
Fold change in Meropenem MIC [18, 26]: 0.66 fold
Fold change in Meropenem MIC ([18]; compound 20 μM, dark): 0 fold
Fold change in Meropenem MIC [18, 27]: 1.3 fold
Fold change in Meropenem MIC ([18]; compound 40 μM, dark): 0.66 fold
Fold change in Meropenem MIC [18, 28]: 2.0 fold
Fold change in Meropenem MIC ([18]; compound 80 μM, dark): 2.6 fold
Fold change in Meropenem MIC [18, 29]: 6.6 fold
Fold change in Meropenem MIC ([18]; compound 160 μM, dark): 35 fold
Fold change in Meropenem MIC [18, 30]: 43 fold
IC50 ([19]; IC50(dark), dark): 13.2 µM and 13 µM
IC50 ([19]; IC50(light), light 450 nm, 60 J cm^-2): 11.1 µM

CN[C@@H]1C[C@H]2O[C@@](C)([C@@H]1OC)n1c3ccccc3c3c4c(c5c6ccccc6n2c5c31)C(=O)NC4 [Staurosporine]
LD50 ([4]; 24 h): 0.05 µM
LD50 ([4]; 48 h): 0.02 µM
LD50 ([5]; RPE1, 24 h): 0.01 µM
LD50 ([5]; RPE1, 48 h): 0.01 µM
LD50 ([6]; HepG2, 24 h): 0.3 µM
LD50 ([6]; HepG2, 48 h): 0.09 µM
LD50 ([7]; HCT116, 24 h): 0.08 µM
LD50 ([7]; HCT116, 48 h): 0.02 µM
LD50 ([11]; 24 h): 0.05 µM
LD50 ([11]; 48 h): 0.01 µM
LD50 ([12]; 24 h): 0.07 µM
LD50 ([12]; 48 h): 0.01 µM
LD50 ([16]; 24 h): 0.03 µM
LD50 ([16]; 48 h): 0.01 µM

C=CC1=C(C)c2cc3[nH]c(cc4nc(cc5[nH]c(cc1n2)c(C)c5CCC(=O)O)C(CCC(=O)O)=C4C)c(C)c3C=C [protoporphyrin IX]
Excited state lifetime [20]: 13 ns

[Ru(2,2'-bipyridine)2(1-(4-(3-aminophenyl)pyridine-2,6-dicarboxylic acid)-imidazo[4,5,f][1,10]phenanthroline)](PF6)2 [Ru1]
Modification of NDM-1 (intact mass) ([21]; 100 equiv, without irradiation): no change
Modification of NDM-1 (intact mass) ([21]; one equivalent, light 450 nm, 20 J cm^-2): considerable modification to the protein
Degradation of NDM-1 vs BSA (band intensity) ([22]; dark): Both proteins were unaffected
Degradation of NDM-1 vs BSA (band intensity) ([22]; light 450 nm, 20 J cm^-2): only NDM-1 was selectively modified and degraded; also recorded: Selective degradation of NDM-1 over BSA
Inhibition of HDAC1 [8]: do not inhibit; also recorded: no off-target inhibition
K d,app from DSF (ΔT vs concentration) ([10]; apparent Kd): 7.4 µM
Change in melting temperature (ΔT) of NDM-1 ([10]; compound 4 μM): –3.9 °C
Change in melting temperature (ΔT) of NDM-1 ([10]; compound 16 μM): –6.8 °C
Change in melting temperature (ΔT) of NDM-1 ([10]; compound 63 μM): –13 °C
Effect on melting temperature of NDM-1 [10]: destabilize the protein in a dose-dependent manner
Fold improvement in potency, light vs dark [14]: 30 fold
MIC [23]: >160 µM
MIC ([18]; E. coli NDM-1, dark and light samples equivalent): >160 µM
Fold change in Meropenem MIC ([18]; compound 5 μM, dark): 0 fold
Fold change in Meropenem MIC [18, 25]: 0.66 fold
Fold change in Meropenem MIC ([18]; compound 10 μM, dark): 0 fold
Fold change in Meropenem MIC [18, 26]: 0.66 fold
Fold change in Meropenem MIC ([18]; compound 20 μM, dark): 0.66 fold
Fold change in Meropenem MIC [18, 27]: 2.0 fold
Fold change in Meropenem MIC ([18]; compound 40 μM, dark): 0.66 fold
Fold change in Meropenem MIC [18, 28]: 5.3 fold
Fold change in Meropenem MIC ([18]; compound 80 μM, dark): 2.6 fold
Fold change in Meropenem MIC [18, 29]: 19 fold
Fold change in Meropenem MIC ([18]; compound 160 μM, dark): 9 fold and 9.3 fold
Fold change in Meropenem MIC [18, 30]: 53 fold

porfimer sodium
Excited state lifetime [20]: 14 ns
